Assay type in all cases: functional, organism-based
The test system of experiment [1] is Influenza A virus. Nature of the experiment: Antiviral activity against oseltamivir-resistant Influenza A virus (H1N1) LN/1109.
The test system of experiment [2] is Influenza A virus. The experiment can be described thus: Antiviral activity against oseltamivir-resistant Influenza A virus (H1N1) TJ/15.
In experiment [3] the test system is Influenza A virus. The experiment can be described thus: Antiviral activity against oseltamivir-resistant Influenza A virus (H1N1) TJ/15 up to 100 uM.

SMILES strings stand for the structures. pEC50: −log10 of the molar value. Active and inactive are the calls of the source. The rule behind the calls is not given here. Where a SMILES comes first, the peptide text is derived from it. [ ]: non-standard residue; d: D form. The star is where a group is joined. Palmitoyl = CCCCCCCCCCCCCCCC(=O)*; βAla = NCCC(=O)O

The pEC50 is the negative decadic logarithm of the EC50, by convention in mol/L. Read a high pEC50 as a small EC50.

For the compound `CCCCCCCCCCCCCCCC(=O)NCCCC[C@H](NC(=O)CCNC(=O)[C@H](CCCCN)NC(=O)[C@H](CCCCN)NC(=O)[C@H](CCC(N)=O)NC(=O)[C@@H](NC(=O)[C@H](CCC(=O)O)NC(=O)[C@H](CCC(=O)O)NC(=O)[C@@H](NC(=O)[C@H](CCCCN)NC(=O)[C@H](CCCCN)NC(=O)[C@H](CCC(N)=O)NC(=O)[C@@H](NC(=O)[C@H](CCC(=O)O)NC(=O)[C@H](CCC(=O)O)NC(=O)[C@@H](NC(=O)[C@H](CCCCN)NC(=O)[C@H](CCCCN)NC(=O)[C@H](CCC(N)=O)NC(=O)[C@@H](NC(=O)[C@H](CCC(=O)O)NC(=O)[C@H](CCC(=O)O)NC(=O)[C@@H](NC(=O)[C@H](CCCCN)NC(=O)[C@H](CCCCN)NC(=O)[C@H](CCC(N)=O)NC(=O)[C@@H](NC(=O)[C@H](CCC(=O)O)NC(=O)[C@H](CCC(=O)O)NC(=O)[C@@H](NC(=O)[C@H](CCCCN)NC(=O)[C@H](CCCCN)NC(=O)[C@H](CCC(N)=O)NC(=O)[C@@H](NC(=O)[C@H](CCC(=O)O)NC(=O)[C@H](CCC(=O)O)NC(=O)[C@@H](NC(C)=O)[C@@H](C)CC)[C@@H](C)CC)[C@@H](C)CC)[C@@H](C)CC)[C@@H](C)CC)[C@@H](C)CC)[C@@H](C)CC)[C@@H](C)CC)[C@@H](C)CC)[C@@H](C)CC)C(N)=O` (Ac-IEEIQKKIEEIQKKIEEIQKKIEEIQKKIEEIQKK[βAla]K(Palmitoyl)-NH2), the pEC50 in the experiment on Influenza A virus [1] was 5.36; in the experiment on Influenza A virus [2], 5.52.
Turning to `CCOC(=O)C1=C[C@@H](OC(CC)CC)[C@H](NC(C)=O)[C@@H](N)C1` [OSELTAMIVIR], the pEC50 with Influenza A virus [1] is 4.66. Also, in the experiment with Influenza A virus [3], the inhibition entry was “inactive”.

Source of the values: ChEMBL document CHEMBL4196194, “De Novo Design of α-Helical Lipopeptides Targeting Viral Fusion Proteins: A Promising Strategy for Relatively Broad-Spectrum Antiviral Drug Discovery” (J Med Chem, 2018).
